According to US20230121952A1 (INFLAZOME LIMITED, priority 2020, published 2023):

How the values were obtained:
NLRP3 [1] = biological target: T1, NLRP3 (Homo sapiens, UniProt Q96P20); experiment: Human whole blood IL-1β release assay; type: cell-based; parameters: Human whole blood in Li-heparin tubes was obtained from healthy donors; from tissue; host or cells: human whole blood from healthy volunteer donors, LPS-primed, nigericin-stimulated; details: 1 μg/ml LPS, compound 3 hrs, nigericin 10 μM 1 hr, IL-1β in supernatant (AlphaLisa), read-out: HWB IC50
Method: For systemic delivery, the ability to inhibit NLRP3 when the compounds are present within the bloodstream is of great importance. For this reason, the NLRP3 inhibitory activity of a number of compounds in human whole blood was investigated in accordance with the following protocol.
Human whole blood in Li-heparin tubes was obtained from healthy donors from a volunteer donor panel. • 1. Plate out 80 μl of whole blood containing 1 μg/ml of LPS in 96-well, clear bottom cell culture plate (Corning #3585) • 2. Add 10 μl compound (8 points half-log dilution with 10 μM top dose) or vehicle (DMSO 0.1% FAC) to the appropriate wells • 3. Incubate for 3 hrs at 37° C., 5% CO2 • 4. Add 10 μl nigericin (Sigma #N7143) (10 μM FAC) to all wells • 5. Incubate for 1 hr at 37° C., 5% CO2 • 6. At the end of the incubation period, spin plates at 300×g for 5 mins to pellet cells and remove 20 μl of supernatant and add to 96-well v-bottom plates for IL-1β analysis (note: these plates containing the supernatants can be stored at −80° C. to be analysed at a later date) • 7. IL-1β was measured according to the manufacturer protocol (Perkin Elmer-AlphaLisa IL-1 Kit AL220F-5000) • 8. IC50 data is fitted to a non-linear regression equation (log inhibitor vs response-variable slope 4-parameters)

NLRP3 [2] = biological target: T1, NLRP3; experiment: THP-1 cells pyroptosis assay; type: cell-based; parameters: Seed THP-1 cells (25,000 cells/well) containing 1.0 μg/ml LPS; host or cells: THP-1 cells, LPS-primed, nigericin-stimulated; details: 1.0 μg/ml LPS, compound 3 hrs, nigericin 5 μM 1 hr, resazurin readout
Method: THP-1 cells (ATCC #TIB-202) were grown in RPMI containing L-glutamine (Gibco #11835) supplemented with 1 mM sodium pyruvate (Sigma #S8636) and penicillin (100 units/ml)/streptomycin (0.1 mg/ml) (Sigma #P4333) in 10% Fetal Bovine Serum (FBS) (Sigma #F0804). The cells were routinely passaged and grown to confluency (˜10^6 cells/ml). On the day of the experiment, THP-1 cells were harvested and resuspended into RPMI medium (without FBS). The cells were then counted and viability (>90%) checked by Trypan blue (Sigma #T8154). Appropriate dilutions were made to give a concentration of 625,000 cells/ml. To this diluted cell solution was added LPS (Sigma #L4524) to give a […] Final Assay Concentration (FAC). 40 μl of the final preparation was aliquoted into each well of a 96-well plate. The plate thus prepared was used for compound screening.
The following method step-by-step assay was followed for compound screening. • 1. Seed THP-1 cells (25,000 cells/well) containing 1.0 μg/ml LPS in 40 μl of RPMI medium (without FBS) in 96-well, black walled, clear bottom cell culture plates coated with poly-D-lysine (VWR #734-0317) • 2. Add 5 μl compound (8 points half-log dilution, with 10 μM top dose) or vehicle (DMSO 0.1% FAC) to the appropriate wells • 3. Incubate for 3 hrs at 37° C., 5% CO2 • 4. Add 5 μl nigericin (Sigma #N7143) (FAC 5 μM) to all wells • 5. Incubate for 1 hr at 37° C., 5% CO2 • 6. At the end of the incubation period, spin plates at 300×g for 3 mins and remove supernatant • 7. Then add 50 μl of resazurin (Sigma #R7017) (FAC 100 μM resazurin in RPMI medium without FBS) and incubate plates for a further 1-2 hrs at 37° C. and 5% CO2 • 8. Plates were read in an Envision reader at Ex 560 nm and Em 590 nm • 9. IC50 data is fitted to a non-linear regression equation (log inhibitor vs response-variable slope 4-parameters) 96-well Plate Map

T1 sequence (Q96P20 whole entry): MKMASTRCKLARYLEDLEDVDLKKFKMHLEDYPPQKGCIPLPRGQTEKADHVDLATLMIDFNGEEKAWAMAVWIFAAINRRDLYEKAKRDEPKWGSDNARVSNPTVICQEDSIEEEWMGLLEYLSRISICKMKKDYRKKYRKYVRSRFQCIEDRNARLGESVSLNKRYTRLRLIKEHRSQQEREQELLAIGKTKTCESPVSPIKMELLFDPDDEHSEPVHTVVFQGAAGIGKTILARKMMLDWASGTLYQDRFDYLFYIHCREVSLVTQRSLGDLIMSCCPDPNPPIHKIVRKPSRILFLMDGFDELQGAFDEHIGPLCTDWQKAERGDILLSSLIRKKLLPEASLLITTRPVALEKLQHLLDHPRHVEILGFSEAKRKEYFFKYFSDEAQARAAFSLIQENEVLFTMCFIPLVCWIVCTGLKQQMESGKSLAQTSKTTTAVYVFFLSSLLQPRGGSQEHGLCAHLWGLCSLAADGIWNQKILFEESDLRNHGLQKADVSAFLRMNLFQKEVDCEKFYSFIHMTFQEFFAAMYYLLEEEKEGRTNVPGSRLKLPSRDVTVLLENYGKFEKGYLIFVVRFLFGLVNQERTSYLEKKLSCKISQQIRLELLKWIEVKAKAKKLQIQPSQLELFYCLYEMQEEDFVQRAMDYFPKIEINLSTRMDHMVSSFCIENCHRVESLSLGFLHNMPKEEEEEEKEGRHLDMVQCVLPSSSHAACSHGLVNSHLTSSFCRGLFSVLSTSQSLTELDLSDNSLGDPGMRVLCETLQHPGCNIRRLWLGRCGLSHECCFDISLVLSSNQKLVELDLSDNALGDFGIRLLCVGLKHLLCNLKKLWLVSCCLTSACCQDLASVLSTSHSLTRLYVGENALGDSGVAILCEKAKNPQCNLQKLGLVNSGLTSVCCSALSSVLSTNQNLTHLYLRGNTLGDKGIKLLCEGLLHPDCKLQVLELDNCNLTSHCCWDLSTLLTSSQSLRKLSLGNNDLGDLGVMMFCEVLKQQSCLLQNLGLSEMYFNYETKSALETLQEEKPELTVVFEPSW

| Compound | IC50 (NLRP3 [1]) [µM] | IC50 (NLRP3 [2]) [µM] |
| --- | --- | --- |
| CN1CCCOc2cc(ccn2)-c2ccc3c(c2Nc2nnc([nH]2)S(=O)(=O)N2CCC1CC2)CCC3 [Example 1, 26-methyl-22-oxa-2λ^6-thia-1,4,5,7,20,26,33-heptazahexacyclo-[25.2.2.1^3,6.1^17,21.0^8,16.0^9,13]tritriaconta-3,6(33),8,13,15,17,19,21(32)-octaene 2,2-dioxide] | ≤ 5 | ≤ 5 |
| O=S1(=O)c2nnc([nH]2)Nc2c(ccc3c2CCC3)-c2ccnc(c2)OCCCN2CCC3(C2)CN1C3 [Example 2, 26-oxa-16λ^6-thia-11,13,14,17,22,28,34-heptazaheptacyclo-[25.3.1.1^12,15.1^17,19.1^19,22.0^2,10.0^5,9]tetratriaconta-1(30),2,4,9,12,14,27(31),28-octaene 16,16-dioxide] | ≤ 0.1 | ≤ 0.1 |
| O=S1(=O)c2nnc([nH]2)Nc2c(ccc3c2CCC3)-c2ccnc(c2)OCCN2CCC3(C2)CN1C3 [Example 3, 25-oxa-16λ^6-thia-11,13,14,17,22,27,33-heptazaheptacyclo-[24.3.1.1^12,15.1^17,19.1^19,22.0^2,10.0^5,9]tritriaconta-1(29),2,4,9,12,14,26(30),27-octaene 16,16-dioxide] | ≤ 0.5 | ≤ 0.1 |
| Cc1cc2c(c3c1-c1ccnc(c1)OCCCN1CCC4(C1)CN(C4)S(=O)(=O)c1nnc([nH]1)N3)CCC2 [Example 4, 3-methyl-26-oxa-16λ^6-thia-11,13,14,17,22,28,34-heptazaheptacyclo-[25.3.1.1^12,15.1^17,19.1^19,22.0^2,10.0^5,9]tetratriaconta-1(30),2,4,9,12,14,27(31),28-octaene 16,16-dioxide] | ≤ 0.5 | ≤ 0.1 |
| CC1(C)COc2cc(ccn2)-c2ccc3c(c2Nc2nnc([nH]2)S(=O)(=O)c2ccn1n2)CCC3 [Example 6, 21,21-dimethyl-23-oxa-16λ^6-thia-11,13,14,20,25,29,30-heptazahexacyclo-[22.3.1.1^12,15.1^17,20.0^2,10.0^5,9]triaconta-1(27),2,4,9,12(30),14,17(29),18,24(28),25-decaene 16,16-dioxide] |  | ≤ 5 |
| CC1(C)CCOc2cc(ccn2)-c2ccc3c(c2Nc2nnc([nH]2)S(=O)(=O)c2ccn1n2)CCC3 [Example 7, 21,21-dimethyl-24-oxa-16λ^6-thia-11,13,14,20,26,30,31-heptazahexacyclo-[23.3.1.1^12,15.1^17,20.0^2,10.0^5,9]hentriaconta-1(28),2,4,9,12,14,17(30),18,25(29),26-decaene 16,16-dioxide] |  | ≤ 10 |
| CN1CCCCOc2cc(ccn2)-c2ccc3c(c2Nc2nnc([nH]2)S(=O)(=O)N2CCC1CC2)CCC3 [Example 13, 27-methyl-22-oxa-2λ^6-thia-1,4,5,7,20,27,34-heptaazahexacyclo-[26.2.2.1^3,6.1^17,21.0^8,16.0^9,13]tetratriaconta-3,5,8,13,15,17,19,21(33)-octaene-2,2-dioxide] |  | ≤ 1 |
| CN1CCOc2cc(ccn2)-c2ccc3c(c2Nc2nnc([nH]2)S(=O)(=O)N2CC[C@H](C1)C2)CCC3 [Example 14, (20R)-22-methyl-25-oxa-16λ^6-thia-11,13,14,17,22,27,32-heptaazahexacyclo[24.3.1.1^12,15.1^17,20.0^2,10.0^5,9]dotriaconta-1(29),2,4,9,12,14,26(30),27-octaene-16,16-dioxide] |  | ≤ 0.5 |
| O=S1(=O)c2nnc([nH]2)Nc2c(ccc3c2CCC3)-c2ccnc(c2)OCCCN2CCC23CCN1CC3 [Example 15, 8-oxa-28λ^6-thia-4,10,23,25,26,29,34-heptaazaheptacyclo-[27.2.2.1^9,13.1^24,27.0^1,4.0^14,22.0^17,21]pentatriaconta-9(35),10,12,14,16,21,24,26-octaene-28,28-dioxide] |  | ≤ 0.1 |
| CN(C)CC12CCCCOc3cc(ccn3)-c3ccc4c(c3Nc3nnc([nH]3)S(=O)(=O)N(C1)C2)CCC4 [Example 16, 19-[(dimethylamino)methyl]-24-oxa-16λ^6-thia-11,13,14,17,26,31-hexaazahexacyclo[23.3.1.1^12,15.1^17,19.0^2,10.0^5,9]hentriaconta-1(28),2,4,9,12,14,25(29),26-octaene-16,16-dioxide] |  | ≤ 1 |
| CN1CCCOc2cc(ccn2)-c2ccc3c(c2Nc2nnc([nH]2)S(=O)(=O)N2CC[C@H]1C2)CCC3 [Example 17, (20S)-21-methyl-25-oxa-16λ^6-thia-11,13,14,17,21,27,32-heptaazahexacyclo[24.3.1.1^12,15.1^17,20.0^2,10.0^0,9]dotriaconta-1(29),2,4,9,12,14,26(30),27-octaene-16,16-dioxide] |  | ≤ 0.5 |

The remaining lines, values ahead:

| IC50 (NLRP3 [1]) [µM] | IC50 (NLRP3 [2]) [µM] | Compound |
| --- | --- | --- |
|  | ≤ 5 | O=S1(=O)c2nnc([nH]2)Nc2c(ccc3c2CCC3)-c2ccnc(c2)OCC2CN(C2)C2CCN1CC2 [Example 18, 6-oxa-26λ^6-thia-2,8,21,23,24,27,32-heptaazaheptacyclo-[25.2.2.1^2,4.1^7,11.1^22,25.0^12,20.1^15,19]tetratriaconta-7(33),8,10,12,14,19,22,24-octaene-26,26-dioxide] |
|  | ≤ 0.5 | O=S1(=O)c2nnc([nH]2)Nc2c(ccc3c2CCC3)-c2ccnc(c2)OCCCCN2CCC3(C2)CN1C3 [Example 19, 27-oxa-16λ^6-thia-11,13,14,17,22,29,35-heptaazaheptacyclo-[26.3.1.1^12,15.1^17,19.1^19,22.0^2,10.0^5,9]pentatriaconta-1(31),2,4,9,12,14,28(32),29-octaene-16,16-dioxide] |
|  | ≤ 0.5 | O=S1(=O)c2nnc([nH]2)Nc2c(ccc3c2CCC3)-c2ccnc(c2)OCCCN2CCOCC23CCN1CC3 [Example 20] |
|  | ≤ 1 | CN(C)CC12CCCCOc3cc(ccn3)-c3ccc4c(c3Nc3nnc([nH]3)S(=O)(=O)N(CC1)C2)CCC4 (stereo not shown) [Example 21, 20-[(dimethylamino)methyl]-25-oxa-16λ^6-thia-11,13,14,17,27,32-hexaazahexacyclo[24.3.1.1^12,15.1^17,20.0^2,10.0^5,9]dotriaconta-1(29),2,4,9,12,14,26(30),27-octaene-16,16-dioxide] |
|  | ≤ 5 | O=S1(=O)c2nnc([nH]2)Nc2c(ccc3c2CCC3)-c2ccnc(c2)OCCCN2C[C@@H]3C[C@H]2CN31 [Example 22, (19S,21S)-27-oxa-16λ^6-thia-11,13,14,17,23,29,33-heptaazaheptacyclo-[26.3.1.1^12,15.0^2,10.0^5,9.0^17,21.0^19,23]tritriaconta-1(31),2,4,9,12,14,28(32),29-octaene-16,16-dioxide] |
|  | ≤ 5 | O=S1(=O)c2nnc([nH]2)Oc2c(ccc3c2CCC3)-c2ccnc(c2)OCCCN2CCC3(C2)CN1C3 [Example 23, 11,26-dioxa-16λ^6-thia-13,14,17,22,28,34-hexaazaheptacyclo-[25.3.1.1^12,15.1^17,19.1^19,22.0^2,10.0^5,9]tetratriaconta-1(30),2,4,9,12,14,27(31),28-octaene-16,16-dioxide] |
|  | ≤ 0.1 | CC(C)c1cc(F)cc2c1Nc1nnc([nH]1)S(=O)(=O)N1CC3(CCN(CCCOc4cc-2ccn4)C3)C1 [Example 24, 4-fluoro-6-(propan-2-yl)-23-oxa-13λ^6-thia-8,10,11,14,19,25,31-heptaazahexacyclo[22.3.1.1^9,12.1^14,16.1^16,19.0^2,7]hentriaconta-1(27),2(7),3,5,9,11,24(28),25-octaene-13,13-dioxide] |
